According to patent US6525001B1, “Substituted pyrimidine and pyridine herbicides” (Mid-American Commercialization Corporation, priority 1997, dated 2003):

Key:
Format in all cases: in vivo
[1] = test system: surinam grass (Brachiaria decumbens); test: Test E pre-/postemergence/post directed; settings: PREEMERGENCE
Summary of the method: (§1)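 Injury scored visually on a 0–100 scale (100 = complete control) 13 to 21 days after treatment. Test chemicals, formulated with surfactant in non-phytotoxic solvent, were applied to soil within one day of planting, to plants at two to four leaves (three to twenty cm), or as directed spray at plant base.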

[2] = test system: common groundsel (Senecio vulgaris); test: Test E pre-/postemergence/post directed; settings: PREEMERGENCE
Summary of the method: as §1

[3] = test system: itchgrass (Rottboellia exaltata); test: Test E pre-/postemergence/post directed; settings: PREEMERGENCE
Summary of the method: as §1

[4] = test system: pitted morningglory (Ipomoea lacunosa); test: Test E pre-/postemergence/post directed; settings: PREEMERGENCE
Summary of the method: as §1

[5] = test system: crabgrass (Digitaria spp.); test: Test A pre-/postemergence; set-up: key: 0 is no effect; 10 is complete control; settings: 0 to 10 scale
Procedure: (§2) Seeds of barnyardgrass (Echinochloa crus-galli), crabgrass (Digitaria spp.), morningglory (Ipomoea spp.), and velvetleaf (Abutilon theophrasti) were planted into a sandy loam soil and treated preemergence by soil drench with test chemicals formulated in a non-phytotoxic solvent mixture which includes a surfactant. At the same time, these crop and weed species were also treated postemergence sprayed to runoff, with test chemicals formulated in the same manner. Plants ranged in height from two to eighteen cm and were in the one to two leaf stage for the postemergence treatment. Treated plants and untreated controls were maintained in a greenhouse for approximately eleven days, after which all treated plants were compared to untreated controls and visually evaluated for injury. Plant response ratings, summarized in Table A, are based on a 0 to 10 scale where 0 is no effect and 10 is complete control. A dash (−) response means no test results.

[6] = test system: morningglory (Ipomoea spp.); test: Test A pre-/postemergence; set-up: key: 0 is no effect; 10 is complete control; settings: 0 to 10 scale
Procedure: as §2

[7] = test system: velvetleaf (Abutilon theophrasti); test: Test A pre-/postemergence; set-up: key: 0 is no effect; 10 is complete control; settings: 0 to 10 scale
Procedure: as §2

[8] = test system: barnyardgrass (Echinochloa crus-galli); test: Test A pre-/postemergence; set-up: key: 0 is no effect; 10 is complete control; settings: 0 to 10 scale
Procedure: as §2

[9] = PRE SOIL DRENCH, Rate 2000 g/ha
[10] = postemergence SPRAYED TO RUNOFF, Rate 1000 g/ha

With `Cc1cnc(-n2cnc(C(F)(F)F)n2)nc1C(=O)c1cccc(C(F)(F)F)c1` [Compound 67] the “Plant response rating, Surinam grass” value ([1]; Rate 32 g/ha) was 35, the “Plant response rating, Surinam grass” value ([1]; Rate 64 g/ha) was 75 and the “Plant response rating, Surinam grass” value ([1]; Rate 125 g/ha) was 75. The “Plant response rating, Com. groundsel” value ([2]; Rate 64 g/ha) was 50, the “Plant response rating, Com. groundsel” value ([2]; Rate 125 g/ha) was 95 and the “Plant response rating, Itchgrass” value ([3]; Rate 32 g/ha) was 40. For the same compound, the “Plant response rating, Itchgrass” value ([3]; Rate 64 g/ha) was 40, the “Plant response rating, Itchgrass” value ([3]; Rate 125 g/ha) was 65 and the “Plant response rating, Itchgrass” value ([3]; Rate 250 g/ha) was 80. For the same compound, the “Plant response rating, P. morninglory” value ([4]; Rate 32 g/ha) was 60, the “Plant response rating, P. morninglory” value ([4]; Rate 64 g/ha) was 75 and the “Plant response rating, P. morninglory” value ([4]; Rate 125 g/ha) was 90. The “Plant response rating, P. morninglory” value ([4]; Rate 250 g/ha) was 90.

In the case of `Cc1cnc(-c2ccc(C(F)(F)F)cc2)nc1C(=O)c1cccc(C(F)(F)F)c1` [Compound 73], the “Plant response rating, Crabgrass” value [5, 9] is reported as 10, the “Plant response rating, Crabgrass” value [5, 10] is reported as 9 and the “Plant response rating, Morningglory” value [6, 9] is reported as 9. The “Plant response rating, Morningglory” value [6, 10] was 9, the “Plant response rating, Velvetleaf” value [7, 9] was 9 and the “Plant response rating, Velvetleaf” value [7, 10] was 9. The “Plant response rating, Barnyardgrass” value [8, 9] was 9 and the “Plant response rating, Barnyardgrass” value [8, 10] was 8.

For `Cc1cnc(-c2ccc(C(F)(F)F)cc2)nc1C(=O)c1ccc(C(F)(F)F)cc1` [Compound 74], the “Plant response rating, Crabgrass” value [5, 9] was 7, the “Plant response rating, Crabgrass” value [5, 10] was 8 and the “Plant response rating, Morningglory” value [6, 9] was 1. For the same compound, the “Plant response rating, Morningglory” value [6, 10] was 10, the “Plant response rating, Velvetleaf” value [7, 9] was 4 and the “Plant response rating, Velvetleaf” value [7, 10] was 5. For the same compound, the “Plant response rating, Barnyardgrass” value [8, 9] was 1 and the “Plant response rating, Barnyardgrass” value [8, 10] was 5.

In the case of `Cc1cnc(-c2ccc(C(F)(F)F)cc2)nc1Cn1nc(C(F)(F)F)cc1C` [Compound 13], the “Plant response rating, Crabgrass” value [5, 9] is reported as 10, the “Plant response rating, Crabgrass” value [5, 10] is reported as 9 and the “Plant response rating, Morningglory” value [6, 9] is reported as 3. For the same compound, the “Plant response rating, Morningglory” value [6, 10] was 2, the “Plant response rating, Velvetleaf” value [7, 9] was 9 and the “Plant response rating, Velvetleaf” value [7, 10] was 8. For the same compound, the “Plant response rating, Barnyardgrass” value [8, 9] was 9 and the “Plant response rating, Barnyardgrass” value [8, 10] was 6.
